# Experimental data published in patent US20190136195A1, “COMPOSITION FOR TREATING TENDONITIS AND MANUFACTURE THEREOF” (Gwo Xi Stem Cell Applied Technology Co., Ltd., priority 2016, published 2019).
# “Also recorded” adds a separate entry of the source.
# What was measured:
# Type in all cases: cell-based, Human
# COL1A1 = experiment: mRNA expression of tendon healing factors in hADSC: COL1A1; conditions: hADSC at 1×10^5 cell/ml, 2.5 μg/ml, 96 or 168 hours
# Experimental: (§1) 20 ml of 1.0×10^5 or 0.2×10^5 cells/ml hADSCs in DMEM medium (10% fetal bovine serum, 1% L-glutamine, 1% non-essential amino acid (NEAA), and 1% sodium pyruvate) was placed on a 15-cm dish, mixed with 2.5 μg/ml butylidenephthalide, and then incubated at 37° C. in a 5% CO2 incubator for 96 hours. After the medium was removed and replaced with fresh medium, hADSCs was cultured under the same condition as described above until 168 hours.
# hADSCs = experiment: Cell activity (MTT cell viability) of hADSC with butylidenephthalide; conditions: 24 and 48 hours
# Experimental: hADSCs were seeded on a 96-well plate at a density of 3×10^3 cell/100 μl, and the 96-well plate was incubated at 37° C. in a humidified 5% CO2 atmosphere. After 16 hours, butylidenephthalide of various concentrations was added to the 96-well plate and then incubated at 37° C. in a 5% CO2 incubator. After 24 and 48 hours, the cell viability was determined. In cell viability assay, 100 μl of 10% MTT reagent was added to each well and then incubated in an incubator for 2 hours. 150 μl DMSO was added and mixed for 15 minutes. The absorbance (OD) of the aqueous solution was determined at 570 nm. According to FIG. 1, butylidenephthalide would not affect the cell activity if its concentration was blow 5 μg/ml. Therefore, 2.5 μg/ml of butylidenephthalide was selected to be used in the following experiments.
# SCX = experiment: mRNA expression of tendon healing factors in hADSC: SCX; conditions: hADSC at 1×10^5 cell/ml, 2.5 μg/ml, 96 or 168 hours
# Experimental: as §1
# [1] = system: COL1 protein (collagen, COL1A1); experiment: Protein expression of COL1A1 in hADSC; conditions: hADSC at 1×10^5 cell/ml, 2.5 μg/ml, 96 or 168 hours
# Experimental: as §1
smiles,measurement,setting,value
"CCCC=C1OC(=O)c2ccccc21 [butylidenephthalide, Butylidenephthalide]",COL1A1 mRNA expression,COL1A1,"increased, significantly; also recorded: significant increase"
same,concentration that would not affect the cell activity (MTT),hADSCs,< 5000 ng/mL
same,SCX mRNA expression,SCX,"increased, significantly; also recorded: significant increase"
same,COL1A1 protein expression,[1],"increased, significantly; also recorded: significant increase"
